Source: patent US9795602B2, “Polycyclic-carbamoylpyridone compounds and their pharmaceutical use” (Gilead Sciences, Inc., priority 2014, dated 2017)
One block for each compound: values may come before it.

Tests used:
HIV-IIIb = experiment: Antiviral assay in MT4 cells; format: cell-based; details: Human immunodeficiency virus 1, IIIB, MT4, 120 h, MT4 cells, HIV-IIIb, 5 days; read-out: EC50
Description: 1 mL aliquots of 2×10^6 MT4 cells are pre-infected for 1 and 3 hours respectively at 37° C. with 25 μL (MT4) or of either cell growth medium (mock-infected) or a fresh 1:250 dilution of an HIV-IIIb concentrated ABI stock (0.004 m.o.i. for MT4 cells). Infected and uninfected cells are diluted in cell growth medium and 35 μL of 2000 (for MT4) cells is added to each well of the assay plates.
Assay plates were then incubated in a 37° C. incubator. After 5 days of incubation, 25 μL of 2× concentrated CellTiter-Glo™ Reagent (catalog # G7573, Promega Biosciences, Inc., Madison, Wis.) was added to each well of the assay plate. Cell lysis was carried out by incubating at room temperature for 2-3 minutes, and then chemiluminescence was read using the Envision reader (PerkinElmer).

[1] = Cytotoxicity (CC50) in MT4 cells, mock-infected; format: cell-based; details: human
Description: Infected and uninfected cells are diluted in cell growth medium and 35 μL of 2000 (for MT4) cells is added to each well of the assay plates. Assay plates were then incubated in a 37° C. incubator. After 5 days of incubation, 25 μL of 2× concentrated CellTiter-Glo™ Reagent (catalog # G7573, Promega Biosciences, Inc., Madison, Wis.) was added to each well of the assay plate. Cell lysis was carried out by incubating at room temperature for 2-3 minutes, and then chemiluminescence was read using the Envision reader (PerkinElmer).

OCT2 = OCT2 (Homo sapiens (Human), UniProt O15244); experiment: OCT2 inhibition assay (14C-TEA uptake, OCT2-transfected MDCKII cells); format: cell-based
Description: MDCKII cells were maintained in minimal essential medium (MEM) with 1% Pen/Strep, 10% fetal bovine serum, and 0.25 mg/mL hygromycin B in an incubator set at 37° C., 90% humidity and 5% CO2. 24 hours prior to assay, media containing 5 mM sodium butyrate were added to MDCKII cells in flasks, and cells were grown to 80-90% confluence. On assay day, cells were trypsinized and resuspended in Krebs-Henseleit Buffer (KHB), pH 7.4 at […]. Cells were preincubated for 15 min in assay plate before addition of test compound or substrate.
Test compounds were serially diluted in DMSO and then spiked (2 μL) into in 0.4 mL KHB buffer containing wild-type or OCT2-transfected cells and incubated for 10 minutes. Assay was initiated with the addition of 0.1 mL of 100 μM ^14C-TEA in KHB buffer (20 μM final concentration after mixing). The concentration of TEA is based on the Km. After 10 minutes of incubation, the assay mixture was quenched with addition of 0.5 mL of ice-cold 1×PBS buffer. Samples were then centrifuged at 1000 rpm for 5 min and supernatants were removed. Wash steps were repeated four times with ice-cold PBS. Finally, the cell pellets were lysed with 0.2N NaOH and let sit at room temperature for at least 30 min to ensure complete lysis. Samples were then counted on liquid scintillation counter and dpm counts were used to perform the following calculations. The % inhibition was calculated as follows: % inhibition=[1−{[OCT2]i−[WT]ni}/{[OCT2]ni−[WT]ni}]*100 where, [OCT2]i represents the dpm count in the presence of test compound for either OCT2 cells, […] of test compound for OCT2 cells and [WT]ni represents the dpm count in the absence of test compound for wild type cells, respectively.

PXR (NR1I2) = PXR (NR1I2) (Homo sapiens (Human), UniProt O75469); experiment: Human PXR activation assay (luciferase reporter, DPX2 cells); format: cell-based; details: human; 15 uM; DPX2 cells; % Emax relative to rifampicin, adjusted for DMSO background; read-out: PXR % inh at 15 uM (adjusted)
Description: Luciferase Reporter Gene Assay.
A stably transformed tumor cell line (DPX2) was plated on 96-well microtiter plates. […]. The number of viable cells was determined and the reporter gene activity was assessed. […]

HIV-1 E138K/Q148K = format: cell-based; details: MT2 cells; mean EC50 mutant / mean EC50 wt
Description: (§1) For the antiviral assay utilizing MT-2 cells, 50 μL of 2× test concentration of 3-fold serially diluted compound in culture medium with 10% FBS was added to each well of a 96-well plate (9 concentrations) in triplicate. MT-2 cells were infected with wild-type or mutant variants of HIV-1 for 3 hours using a volume of viral inoculum determined to produce 90% cell killing. Fifty microliters of infected cell suspension in culture medium with 10% FBS (˜1.5×10^4 cells) was then added to each well containing 50 μL of serially diluted compound. The plates with HIV-infected cultures were then incubated at 37° C. for 5 days in the presence of the tested compounds. After 5 days of incubation, 100 μL of CellTiter-Glo™ Reagent (catalog # G7571, Promega Biosciences, Inc., Madison, Wis.) was added to each well. Cell lysis was carried out by incubating at room temperature for 10 min followed by a chemiluminescence read-out.
(§2) The chemiluminescence readout from the 10-point antiviral dose response was analyzed directly by curve fitting with equation (I) to determine the EC50.
(§3) where y=Cell Survival, M=maximum cell survival enabled by drug protection, H=baseline cell survival without drug protection, n=Hill coefficient of the antiviral dose response, m=Hill coefficient of the cytotoxicity dose response, and [I]=inhibitor concentration.
(§4) EC50 values (mean±standard deviation) were calculated from at least three independent experiments performed in triplicate. The fold-change in antiviral activity of tested compounds was calculated as a ratio of the mean EC50 for each mutant virus divided by the mean EC50 of the control WT virus.

HIV-1 E92Q/N155H = format: cell-based; details: MT2 cells; mean EC50 mutant / mean EC50 wt
Description: as §1, §2, §3, §4

HIV-1 G140S/Q148R = format: cell-based; details: MT2 cells; mean EC50 mutant / mean EC50 wt
Description: as §1, §2, §3, §4

HIV-1 N155H/Q148R = format: cell-based; details: MT2 cells; mean EC50 mutant / mean EC50 wt
Description: as §1, §2, §3, §4

wild-type HIV-1 = experiment: Antiviral assay in MT-2 cells, wild-type HIV-1; format: cell-based; details: Human immunodeficiency virus 1, 120 h; MT2 cells, wild-type HIV-1, 5 days; read-out: wt
Description: as §1, §2, §3, §4

[2] = Plasma protein binding (equilibrium dialysis); format: in vitro ADME; details: human, plasma (sodium EDTA) versus buffer; 2 μM in plasma vs. buffer, 24 hours at 37° C.; read-out: % Free HP/Buffer
Description: Plasma protein binding was determined using a HTD96b equilibrium dialyzer with a plate base, stainless steel pressure plate and Teflon bock. 9 Teflon bars, labeled sequentially from A through I, were assembled with two stainless steel connecting rods. Membranes were placed between two Teflon bars, with the membrane placed approximately 2 mm below the top edge of the bar and the lower membrane edge overlapped the bottom of all wells. The membrane was soaked for about 20 minutes in water, about 20 minutes in ethanol (30/70 v/v) and rinsed with water three times to remove the ethanol. It was soaked in PBS for at least 30 minutes. Plasma in sodium EDTA (Bioreclamation or equivalent) was used. The Plasma (not pH-adjusted) was stored at −80° C. and thawed at room temperature before use. The stock solution of the compounds tested was at 200 μM in DMSO. The quench solution used was 50 nM of an internal standard in 100% ACN. To prepare a 2 μM solution of the compound tested in plasma, 5 μL of a 200 μM stock solution was added to 495 μL of blank plasma. 100 μL plasma was added with 2 μM of test compound into one side of the well. 100 μL of buffer (for plasma vs. buffer) was added into another side of the well. The 96-well plate was covered using an adhesive sealing film and incubated for 24 hours at 37° C. under slow rotation. This procedure was replicated for each compound. 50 μL of plasma sample was put into a 96 well plate, 50 μL of buffer was added. 50 μL of buffer was put into a 96 well plate. 50 μL of plasma was added. 300 μL of quench solution was added and the plate sealed and shaken for 15 minutes. The material was centrifuged for 30 minutes at 3000 RPM and ˜250 μL was transferred into a short plate. The samples were analyzed by LC/MS. The resulting data is shown in the last row of Table 3 as “% Free” which corresponds to the percentage of compound not protein bound.

PXR (NR1I2), sequence (O75469 whole entry): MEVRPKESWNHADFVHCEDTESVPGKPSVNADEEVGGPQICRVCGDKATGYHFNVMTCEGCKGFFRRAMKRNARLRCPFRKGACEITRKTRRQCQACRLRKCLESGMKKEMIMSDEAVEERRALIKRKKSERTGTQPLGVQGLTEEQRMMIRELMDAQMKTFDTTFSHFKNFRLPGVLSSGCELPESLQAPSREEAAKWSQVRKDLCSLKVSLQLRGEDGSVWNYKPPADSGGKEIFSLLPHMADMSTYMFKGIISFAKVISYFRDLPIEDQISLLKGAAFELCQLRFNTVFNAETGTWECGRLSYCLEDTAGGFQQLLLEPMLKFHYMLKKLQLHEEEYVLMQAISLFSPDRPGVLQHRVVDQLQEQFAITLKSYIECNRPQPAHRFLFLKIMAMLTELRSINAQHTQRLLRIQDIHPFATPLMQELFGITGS
OCT2, sequence (O15244 whole entry): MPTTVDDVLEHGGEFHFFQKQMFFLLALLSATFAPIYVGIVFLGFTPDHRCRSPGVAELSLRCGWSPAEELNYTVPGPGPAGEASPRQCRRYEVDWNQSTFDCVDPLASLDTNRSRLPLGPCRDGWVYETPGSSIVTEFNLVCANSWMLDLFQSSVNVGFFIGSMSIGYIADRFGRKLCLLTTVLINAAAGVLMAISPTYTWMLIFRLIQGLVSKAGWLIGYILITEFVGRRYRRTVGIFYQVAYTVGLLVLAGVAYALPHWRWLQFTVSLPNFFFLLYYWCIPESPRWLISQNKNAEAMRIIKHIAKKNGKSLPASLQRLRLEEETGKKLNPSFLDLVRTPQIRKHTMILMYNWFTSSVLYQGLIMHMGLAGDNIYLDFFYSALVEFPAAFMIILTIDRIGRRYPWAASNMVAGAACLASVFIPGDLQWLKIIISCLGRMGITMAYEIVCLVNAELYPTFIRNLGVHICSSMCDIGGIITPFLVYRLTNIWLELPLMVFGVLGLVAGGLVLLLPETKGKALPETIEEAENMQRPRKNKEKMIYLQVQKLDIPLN

Compound: CCN1C(=O)c2c(O)c(=O)c(C(=O)NCc3c(F)cc(F)cc3F)cn2[C@@H]2CCOC[C@H]21 [Compound 12]
EC50 (HIV-IIIb): 6.26 nM | CC50 at 5 days ([1]; mock-infected (uninfected)): 36500 nM | IC50 (OCT2): 6400 nM | inhibition at 24 h, 15 µM (PXR (NR1I2)): 18%

Compound: CCN1C(=O)c2c(O)c(=O)c(C(=O)NCc3ccc(F)cc3F)cn2[C@H]2CCOC[C@H]21 [Compound 41]
EC50 (HIV-IIIb): 2.88 nM | CC50 at 5 days ([1]; mock-infected (uninfected)): 27400 nM | inhibition at 24 h, 15 µM (PXR (NR1I2)): 21% | Resistance fold shift E138K/Q148K vs. wild type (HIV-1 E138K/Q148K): 3.5 fold shift | Resistance fold shift E92Q/N155H vs. wild type (HIV-1 E92Q/N155H): 2.1 fold shift | Resistance fold shift G140S/Q148R vs. wild type (HIV-1 G140S/Q148R): 2.9 fold shift | Resistance fold shift N155H/Q148R vs. wild type (HIV-1 N155H/Q148R): 1.8 fold shift | EC50 (wild-type HIV-1): 2 nM | fraction unbound at 24 h, 2 µM [2]: 0.057

Compound: CCN1C(=O)c2c(O)c(=O)c(C(=O)NCc3c(F)cc(F)cc3F)cn2[C@H]2COC[C@H]21 [Compound 44]
EC50 (HIV-IIIb): 5.68 nM | CC50 at 5 days ([1]; mock-infected (uninfected)): 38000 nM | inhibition at 24 h, 15 µM (PXR (NR1I2)): 32% | Resistance fold shift E138K/Q148K vs. wild type (HIV-1 E138K/Q148K): 23.8 fold shift | Resistance fold shift E92Q/N155H vs. wild type (HIV-1 E92Q/N155H): 2.3 fold shift | Resistance fold shift G140S/Q148R vs. wild type (HIV-1 G140S/Q148R): 5.9 fold shift | Resistance fold shift N155H/Q148R vs. wild type (HIV-1 N155H/Q148R): 17.7 fold shift | EC50 (wild-type HIV-1): 7.8 nM | fraction unbound at 24 h, 2 µM [2]: 0.068

Compound: CCN1C(=O)c2c(O)c(=O)c(C(=O)NCc3c(F)cc(F)cc3F)cn2[C@H]2CCOC[C@H]21 [Compound 33]
EC50 (HIV-IIIb): 2.84 nM | CC50 at 5 days ([1]; mock-infected (uninfected)): 31100 nM | inhibition at 24 h, 15 µM (PXR (NR1I2)): 12% | Resistance fold shift E138K/Q148K vs. wild type (HIV-1 E138K/Q148K): 5.9 fold shift | Resistance fold shift E92Q/N155H vs. wild type (HIV-1 E92Q/N155H): 0.9 fold shift | Resistance fold shift G140S/Q148R vs. wild type (HIV-1 G140S/Q148R): 2.5 fold shift | Resistance fold shift N155H/Q148R vs. wild type (HIV-1 N155H/Q148R): 2.2 fold shift | EC50 (wild-type HIV-1): 2.5 nM | fraction unbound at 24 h, 2 µM [2]: 0.056

Compound: CCN1C(=O)c2c(O)c(=O)c(C(=O)NCc3cc(Cl)c(F)cc3F)cn2[C@H]2CCOC[C@H]21 [Compound 15]
EC50 (HIV-IIIb): 7.92 nM | CC50 at 5 days ([1]; mock-infected (uninfected)): 14900 nM | inhibition at 24 h, 15 µM (PXR (NR1I2)): 6%

Compound: CCCN1C(=O)c2c(O)c(=O)c(C(=O)NCc3c(F)cc(F)cc3F)cn2[C@@H]2CCO[C@@H]21 (racemic) [Compound 24]
EC50 (HIV-IIIb): 7.29 nM | CC50 at 5 days ([1]; mock-infected): 37500 nM | inhibition at 24 h, 15 µM (PXR (NR1I2)): 29%

Now from value to compound, other results behind:

EC50 (HIV-IIIb): 2.62 nM | IC50 (OCT2): 10000 nM | inhibition at 24 h, 15 µM (PXR (NR1I2)): 1%
Compound: O=C(NCc1c(F)cc(F)cc1F)c1cn2c(c(O)c1=O)C(=O)N(CC(F)(F)F)[C@H]1COCC[C@H]12 [Compound 31]
CC50 at 5 days ([1]; mock-infected (uninfected)): 52500 nM

EC50 (HIV-IIIb): 4.27 nM | inhibition at 24 h, 15 µM (PXR (NR1I2)): 35%
Compound: CCCN1C(=O)c2c(O)c(=O)c(C(=O)NCc3c(F)cc(F)cc3F)cn2[C@H]2CCOC[C@H]21 [Compound 37]
CC50 at 5 days ([1]; mock-infected (uninfected)): 33900 nM

EC50 (HIV-IIIb): 1.58 nM | inhibition at 24 h, 15 µM (PXR (NR1I2)): 5%
Compound: O=C(NCc1ccc(F)c(Cl)c1F)c1cn2c(c(O)c1=O)C(=O)N(CC(F)F)[C@@H]1COCC[C@@H]12 [Compound 36]
CC50 at 5 days ([1]; mock-infected (uninfected)): 19700 nM

EC50 (HIV-IIIb): 4.3 nM | inhibition at 24 h, 15 µM (PXR (NR1I2)): 1%
Compound: CN1C(=O)c2c(O)c(=O)c(C(=O)NCc3c(F)cc(F)cc3F)cn2[C@H]2CCOC[C@H]21 [Compound 48]
CC50 at 5 days ([1]; mock-infected (uninfected)): 32300 nM

EC50 (HIV-IIIb): 4.93 nM | inhibition at 24 h, 15 µM (PXR (NR1I2)): 24%
Compound: CCN1C(=O)c2c(O)c(=O)c(C(=O)NCc3c(F)cc(F)cc3F)cn2[C@H]2CCO[C@H]21 [Compound 26b]
CC50 at 5 days ([1]; mock-infected (uninfected)): 30900 nM

EC50 (HIV-IIIb): 3.45 nM | inhibition at 24 h, 15 µM (PXR (NR1I2)): 6%
Compound: O=C(NCc1c(F)cc(F)cc1F)c1cn2c(c(O)c1=O)C(=O)N(C1CC1)[C@H]1OCC[C@H]12 (racemic) [Compound 21]
CC50 at 5 days ([1]; mock-infected): 31100 nM

EC50 (HIV-IIIb): 2.83 nM | inhibition at 24 h, 15 µM (PXR (NR1I2)): 67%
Compound: CC(C)N1C(=O)c2c(O)c(=O)c(C(=O)NCc3c(F)cc(F)cc3F)cn2[C@H]2CCOC[C@H]21 [Compound 38]
CC50 at 5 days ([1]; mock-infected (uninfected)): 16600 nM

EC50 (HIV-IIIb): 4.58 nM | inhibition at 24 h, 15 µM (PXR (NR1I2)): 20%
Compound: CCN1C(=O)c2c(O)c(=O)c(C(=O)NCc3ccc(F)c(Cl)c3F)cn2[C@@H]2CCO[C@@H]21 [Compound 25a]
CC50 at 5 days ([1]; mock-infected (uninfected)): 25900 nM
